# Reference: US20080312306A1, “POLYMORPHS, SOLVATES, AND HYDRATE OF 5-(4'-FLUORO-2'-OXO-1',2'-DIHYDROSPIRO[CYCLOPROPANE-1,3'-INDOL]-5'-YL)-1-METHYL-1H-PYRROLE-2-CARBONITRILE” (Wyeth, priority 2007, published 2008)
# Assays:
# Assay type in all cases: physicochemical
# [1] = Relative solubility of the crystallographic forms
# Excerpt: (§1) The inventors found several advantages of these new forms of 5-(4′-fluoro-2′-oxo-1′,2′-dihydrospiro[cyclopropane-1,3′-indol]-5′-yl)-1-methyl-1H-pyrrole-2-carbonitrile. […] In yet a further embodiment, samples of the hydrate of 5-(4′-fluoro-2′-oxo-1′,2′-dihydrospiro[cyclopropane-1,3′-indol]-5′-yl)-1-methyl-1H-pyrrole-2-carbonitrile were hygroscopic.
# [2] = Solid-form stability (thermodynamic stability, slurrying in solvent, water, micronization, vacuum)
# Excerpt: as §1
# The hydrate of 5-(4′-fluoro-2′-oxo-1′,2′-dihydrospiro[cyclopropane-1,3′-indol]-5′-yl)-1-methyl-1H-pyrrole-2-carbonitrile is also stable under a variety of conditions. In one example, the hydrate is stable in water. In another example, the hydrate is stable under conditions of micronization. In a further example, the hydrate is stable under a vacuum for a period of at least about 48 hours.
# [3] = Hygroscopicity / water content by dynamic vapor sorption (DVS)
# Excerpt: as §1
# The hydrate has a different structure of the crystal lattice of 5-(4′-fluoro-2′-oxo-1′,2′-dihydrospiro[cyclopropane-1,3′-indol]-5′-yl)-1-methyl-1H-pyrrole-2-carbonitrile from the Form I described in the art as determined by XRD and DSC. Specifically, the hydrate contains water in the crystal lattice. Specifically, as evidenced by dynamic vapor sorption (DVS), the hydrate contains about 2.5% to about 5% water. In one embodiment, the hydrate contains about 2.5% water at 0% relative humidity (RH).
solubility ([1]; compared with polymorph Form II),stability ([2]; in water),period of stability under a vacuum ([2]; under a vacuum),stability ([2]; under conditions of micronization),hygroscopicity [3],water content (DVS) ([3]; at 0% relative humidity (RH)),water content (DVS) ([3]; at 100% RH),thermodynamic stability ([2]; compared with polymorph Form I),conversion to other polymorphs ([2]; if slurried in a solvent),Compound,solubility ([1]; compared with other crystallographic forms)
more soluble than polymorph Form II,–,–,–,–,–,–,–,–,"Cn1c(C#N)ccc1-c1ccc2c(c1F)C1(CC1)C(=O)N2 [polymorph Form III, 5-(4′-fluoro-2′-oxo-1′,2′-dihydrospiro[cyclopropane-1,3′-indol]-5′-yl)-1-methyl-1H-pyrrole-2-carbonitrile]",more soluble than other crystallographic forms
–,stable,at least 48 hours,stable,hygroscopic,about 2.5%,about 4.75%,–,–,"Cn1c(C#N)ccc1-c1ccc2c(c1F)C1(CC1)C(=O)N2 [hydrate, 5-(4′-fluoro-2′-oxo-1′,2′-dihydrospiro[cyclopropane-1,3′-indol]-5′-yl)-1-methyl-1H-pyrrole-2-carbonitrile]",–
–,–,–,–,not hygroscopic,–,–,more thermodynamically stable,does not convert to other polymorphs,"Cn1c(C#N)ccc1-c1ccc2c(c1F)C1(CC1)C(=O)N2 [polymorph Form II, 5-(4′-fluoro-2′-oxo-1′,2′-dihydrospiro[cyclopropane-1,3′-indol]-5′-yl)-1-methyl-1H-pyrrole-2-carbonitrile]",–
